Assay results reported in paper PMC10683025, “Discovery of a Hydroxylamine-Based Brain-Penetrant EGFR Inhibitor for Metastatic Non-Small-Cell Lung Cancer” (Journal of Medicinal Chemistry, 2023).
Values after ≈ are worked out from the molar mass of the structure shown. Read-outs that look alike come from different tables or passages of the source.

Legend:
[1] = test system: NCI-H3255 (EGFR mutation = L858R); assay: CellTiter-Glo cell viability assay; format: cell-based, human; details: NCI-H3255
Procedure: The NCI-H3255 cell line was obtained from CoBioer. […] NCI-H3255 cells were cultured in BEGM (Lonza) with 10% FBS. […] All cells were cultured in a humidified incubator with 5% CO2 at 37 °C.
Viability assays using A431, HCC827, NCI-H1975, NCI-H3255, Ba/F3 EGFR-del E746_A750/C797S, Ba/F3 EGFR-L858R/C797S, AU565, SK-BR-3, and ZR-75-30 cells were performed at Crown BioScience.

[2] = Metabolic stability in liver microsomes; format: in vitro ADME, human; details: for Remaining Percentage: human LM
Procedure: (§2) Microsome stability was assessed in duplicate (n = 2) in the presence and absence of nicotinamide adenine dinucleotide phosphate (NADPH) with liver microsomes (0.5 mg/mL) from human (BD Gentest) and Sprague-Dawley rats (BD Gentest). Compounds were incubated in liver microsomes at 1 μM and samples (30 μL) were taken at 0.5, 15, 30, 45, and 60 min time points for analysis by LC-MS/MS. Hepatocyte stability was assessed in duplicate (n = 2) at a working cell density of 0.5 × 10^6 cells/mL with hepatocytes from human (BiolVT), Sprague-Dawley rat (BiolVT), cynomolgus monkey (RILD) or beagle dog (BiolVT). […] The in vitro half-life and intrinsic clearances were determined as previously described.[76]
(§3) In vitro half-life (in vitro t1/2) was determined from the slope value in [drawing 1] where k was determined by linear regression of the natural logarithm of the remaining percentage of the parent drug vs the incubation time curve.

Plasma stability [3] = format: in vitro ADME, Sprague-Dawley rat
Procedure: (§1) Assessment of compounds to determine stability in incubations containing plasma of human (Pharmaron) and Sprague-Dawley rat (IPHASE) was performed by Pharmaron, Inc. using the compound […] approach. Compounds were assessed in duplicate (n = 2) and incubated in plasma at 5 μM and samples (50 μL) were taken at 0, 15, 30, 60, and 120 min time points for analysis by LC-MS/MS. Peak area ratios were determined from the extracted ion chromatogram and the percent compound remaining at each time point was calculated by the following equation: [drawing 2] where peak area ratiot min is the peak area ratio of control and test compound at t min and peak area ratio0 min is the peak area ratio of control and test compound at zero time point.

Caco-2 permeability = format: in vitro ADME; details: human; for recovery at 2 h, 5 μM: Caco-2, Caco-2
Procedure: (§4) A 96-well HTS Transwell plate (Corning) was used for Caco-2 and MDCKII-MDR1 cell seeding. […] Plates were incubated at 37 °C for 2 h, and samples (50 μL) were taken at the beginning and end of the incubation in both the donor and acceptor wells with the assay run in duplicate (n = 2). Samples were analyzed by LC-MS/MS.
(§5) The efflux ratio was determined by using the following equation: [drawing 4] where Papp (B–A) indicates the apparent permeability in the basolateral to apical direction and Papp (A–B) indicates the apparent permeability in the apical to basolateral direction.

Plasma stability [4] = format: in vitro ADME, human
Procedure: as §1

[5] = Lipophilicity, shake-flask; format: physicochemical; details: 1-octanol/PBS; 1-octanol and PBS (pH 7.4); read-out: logD7.4
Procedure: Compound lipophilicity was determined by Pharmaron, Inc. using the shake-flask method with 1-octanol and PBS (pH 7.4). Each compound was assessed in duplicate (n = 2) at 1 μM in a 96-well plate shaken at 25 °C and 2000 rpm for 2 h. Samples were analyzed by liquid chromatography and tandem mass spectrometry (LC-MS/MS).

EGFRL858R = EGFRL858R (Homo sapiens, UniProt P00533, L858R); assay: KINOMEScan KdELECT Kd determination; format: binding; design: purchased Eurofins DiscoverX (contract assay); details: L858R
Procedure: In vitro kinase activity (inhibitor binding constants (Kd) and biochemical inhibition (IC50’s)) were assessed by Eurofins DiscoverX (Kd determinations) and Eurofins Cerep (biochemical IC50 determinations).

Pharmacokinetic study = format: in vivo, Sprague-Dawley rats
Procedure: Animal experiments were performed at Pharmaron, Inc. and animal use was approved by Pharmaron’s Institutional Animal Care and Use Committee (IACUC) in Pharmaron (Pharmaron IACUC, Protocol #PK-M-07182022, #PK-R-06012022, and #ON-CELL-XEN-06012022) following the guidance of AAALAC. Six- to eight-week-old male Sprague-Dawley rats (approximately 200–300 g) obtained from Si Bei Fu Laboratory Animal Technology Co., six- to eight-week-old male CD1 mice (approximately 20–30 g) obtained from Si Bei Fu Laboratory Animal Technology Co., and six- to eight-week-old female BALB/c nude mice (approximately 20–30 g) obtained from Si Bei Fu Laboratory Animal Technology Co., were used in the pharmacokinetic studies. Six- to eight-week-old female BALB/c nude mice (approximately 18–22 g) obtained from Beijing Anikeeper Biotech Co., Ltd. were used in the intracranial PDX study. Animals were housed at 20–25 °C with humidity ranging from 40 to 70% relative humidity, were exposed to 12 h light and dark cycles, and were supplied with food and water ab libitum.
Approximately 0.03 mL of blood was collected from the dorsal metatarsal vein (in the case of CD1 mice), 0.03 mL of blood from the orbit vein (in the case of BALB/c nude mice), or 0.2 mL of blood from the jugular vein (in the case of Sprague-Dawley rats) at each time point. Blood at each sampling point was transferred into a plastic micro centrifuge tube containing K2-EDTA, and collection tubes with blood samples and anticoagulant were inverted several times for proper mixing of the tube contents and placed on ice prior to centrifugation for plasma. Blood samples were centrifuged at 4 °C, 4000g for 5 min to obtain plasma. Samples were stored in a freezer at −75 °C prior to analysis. Concentrations of test articles in the plasma samples were determined using LC-MS/MS and WinNonlin 8.3 (Phoenix) was used for pharmacokinetic calculations. The values obtained were plotted on GraphPad Prism software and are presented as mean ± SD.

[6] = Metabolic stability in liver microsomes; format: in vitro ADME, Sprague-Dawley rat; details: for Remaining Percentage: rat LM
Procedure: as §2, §3

MDCKII-MDR1 permeability = format: in vitro ADME, canine; details: dog, MDCK-MDR1, MDCKII-MDR1
Procedure: as §4, §5

[7] = Brain tissue binding by equilibrium dialysis; format: in vitro ADME; details: rat
Procedure: Plasma protein binding and brain tissue binding were determined by Pharmaron, Inc. using the equilibrium dialysis method. […] Following incubation, the samples were analyzed by LC-MS/MS and the concentrations of the compounds were determined in the buffer and plasma solution chambers.

Solubility assay = format: physicochemical; details: buffer; for solubility at 2 h: read-out: Aq. Solubility
Procedure: Solubility was determined by Pharmaron, Inc. and each compound was assessed in duplicate (n = 2) by adding 15 μL of compound stock solution (10 mM in DMSO) into a 96-well plate along with 485 μL of buffer followed by shaking at 25 °C, 1100 rpm for 2 h. Wells were filtered, and samples (5 μL) were taken followed by dilution with an equal volume of DMSO (5 μL) and 490 μL of aqueous solution. Samples were analyzed by LC-MS/MS.

[8] = male, Sprague-Dawley, plasma, Rat 2 mg/kg (IV)
[9] = male, Sprague-Dawley, plasma, Rat 20 mg/kg (PO)
[10] = male, Sprague-Dawley, plasma, rat, 1 mg/kg IV and 5 mg/kg PO dosing (route of value not stated)

EGFRL858R, sequence (P00533 25-1210 L858R): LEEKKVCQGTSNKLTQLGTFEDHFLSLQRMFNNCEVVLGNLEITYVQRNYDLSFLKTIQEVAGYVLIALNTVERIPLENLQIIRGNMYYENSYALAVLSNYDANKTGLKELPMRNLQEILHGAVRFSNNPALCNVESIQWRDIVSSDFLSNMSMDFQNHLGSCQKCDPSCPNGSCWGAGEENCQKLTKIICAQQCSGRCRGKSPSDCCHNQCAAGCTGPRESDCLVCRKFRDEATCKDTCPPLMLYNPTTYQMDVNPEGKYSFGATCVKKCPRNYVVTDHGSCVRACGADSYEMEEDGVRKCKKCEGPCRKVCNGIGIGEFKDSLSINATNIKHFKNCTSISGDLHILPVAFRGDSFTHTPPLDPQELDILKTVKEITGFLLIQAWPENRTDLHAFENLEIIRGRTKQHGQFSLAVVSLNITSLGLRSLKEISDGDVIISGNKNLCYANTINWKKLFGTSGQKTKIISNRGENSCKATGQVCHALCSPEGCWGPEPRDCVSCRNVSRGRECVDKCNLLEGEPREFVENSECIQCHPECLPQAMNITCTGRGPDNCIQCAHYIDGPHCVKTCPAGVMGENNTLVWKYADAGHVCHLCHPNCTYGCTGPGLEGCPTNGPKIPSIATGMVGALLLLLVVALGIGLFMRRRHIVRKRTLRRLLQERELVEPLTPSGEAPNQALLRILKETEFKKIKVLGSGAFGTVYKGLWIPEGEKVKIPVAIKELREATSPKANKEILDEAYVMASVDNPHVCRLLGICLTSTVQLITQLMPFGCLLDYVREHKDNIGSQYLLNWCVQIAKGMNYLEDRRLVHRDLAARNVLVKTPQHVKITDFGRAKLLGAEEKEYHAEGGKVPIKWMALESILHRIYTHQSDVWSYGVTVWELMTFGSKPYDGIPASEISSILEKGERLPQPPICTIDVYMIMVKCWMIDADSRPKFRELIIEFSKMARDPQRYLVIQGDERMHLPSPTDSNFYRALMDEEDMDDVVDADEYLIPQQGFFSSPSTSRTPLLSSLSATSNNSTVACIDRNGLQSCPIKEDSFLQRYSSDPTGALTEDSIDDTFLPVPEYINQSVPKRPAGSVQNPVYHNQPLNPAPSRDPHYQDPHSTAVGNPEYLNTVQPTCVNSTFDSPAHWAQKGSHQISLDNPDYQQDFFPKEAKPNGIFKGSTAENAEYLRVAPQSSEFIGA

What does the source list for COc1cc2ncnc(Nc3cccc(Cl)c3F)c2cc1OCCON1CCN(C)CC1 [Compound 9, N-(3-Chloro-2-fluorophenyl)-7-methoxy-6-(2-((4-methylpiperazin-1-yl)oxy)ethoxy)quinazolin-4-amine]?
IC50 ([1]; Homo sapiens, 72 h, unadjusted for FBS): 7.2 nM; improvement of IC50 over 6 [1]: roughly 12 fold; Remaining Percentage ([2]; +Cofactors, 15 min): 69.65%; Remaining Percentage ([2]; +Cofactors, 30 min): 46.26%; Remaining Percentage ([2]; +Cofactors, 45 min): 31.49%; Remaining Percentage ([2]; +Cofactors, 60 min): 26.65%; Remaining Percentage ([2]; -Cofactors, 60 min): 109.86%; half-life at 1 h, 1 µM ([2]; human, liver microsomes, read-out: LM t1/2): 30 min; microsomal CLint at 1 h, 1 µM ([2]; human, liver microsomes, read-out: LMClint): 46 µL/min/mg; remaining at 5 μM (Plasma stability [3]; Sprague-Dawley, rat, plasma): > 90%; Remaining Percentages (Plasma stability [3]; rat plasma, 15 min): 96.53%; Remaining Percentages (Plasma stability [3]; rat plasma, 30 min): 95.56%; Remaining Percentages (Plasma stability [3]; rat plasma, 60 min): 99.37%; Remaining Percentages (Plasma stability [3]; rat plasma, 120 min): 96.60%; t1/2 (Plasma stability [3]; rat plasma, ∞ = no degradation): ∞; efflux ratio at 2 h, 5 µM (Caco-2 permeability; Caco-2): 1.3; efflux ratio at 2 h, 5 μM (Caco-2 permeability; Caco-2): 1.32; recovery at 2 h, 5 μM (Caco-2 permeability; read-out: Recovery% (AP-BL)): 53.9%; recovery at 2 h, 5 μM (Caco-2 permeability; read-out: Recovery% (BL-AP)): 73.5%; Papp A→B at 2 h, 5 µM (Caco-2 permeability; Caco-2, 5 μM, 2 h): 6.5 ×10⁻⁶ cm/s; Papp A→B at 2 h, 5 μM (Caco-2 permeability; Caco-2, 5 μM, 2 h): 6.52 ×10⁻⁶ cm/s; Papp B→A at 2 h, 5 µM (Caco-2 permeability; Caco-2, 5 μM, 2 h): 8.6 ×10⁻⁶ cm/s; Papp B→A at 2 h, 5 μM (Caco-2 permeability; Caco-2, 5 μM, 2 h): 8.61 ×10⁻⁶ cm/s; Remaining Percentages (Plasma stability [4]; human plasma, 15 min): 93.43%; Remaining Percentages (Plasma stability [4]; human plasma, 30 min): 92.26%; Remaining Percentages (Plasma stability [4]; human plasma, 60 min): 97.47%; Remaining Percentages (Plasma stability [4]; human plasma, 120 min): 92.38%; t1/2 (Plasma stability [4]; human plasma, ∞ = no degradation): ∞; remaining at 5 μM (Plasma stability [4]; human, plasma): > 90%; logD at 2 h, 1 µM [5]: 2.8; Kd (EGFRL858R): < 0.2 nM; adverse events or signs of toxicity (Pharmacokinetic study; Sprague-Dawley rats at the tested PK doses): No adverse events or signs of toxicity were observed; clearance at 24 h (Pharmacokinetic study; [8]): 59.6 ± 22.2 mL/min/kg; half-life at 24 h (Pharmacokinetic study; [8]): 144 ± 64.2 min; Vd at 24 h (Pharmacokinetic study; male, Sprague-Dawley, plasma, Rat 2 mg/kg (IV), read-out: Vss): 6.67 L/kg; Cmax at 24 h (Pharmacokinetic study; [9]): 653 ± 106 nM; Tmax at 24 h (Pharmacokinetic study; [9]): 2 h; bioavailability at 24 h (Pharmacokinetic study; [9]): 64%; half-life at 24 h (Pharmacokinetic study; [9]): 142 min; AUC(0-inf) at 24 h (Pharmacokinetic study; [10]): 279 ng·h/mL; half-life at 24 h (Pharmacokinetic study; [10]): 137 min; AUC(0-inf) (Pharmacokinetic study; male, Sprague-Dawley, plasma, rat, 20 mg/kg PO): 3910 ng·h/mL; half-life at 1 h, 1 µM ([6]; Sprague-Dawley, rat, liver microsomes, read-out: LM t1/2): 9.5 min; microsomal CLint at 1 h, 1 µM ([6]; Sprague-Dawley, rat, liver microsomes, read-out: LMClint): 146 µL/min/mg; Remaining Percentage ([6]; +Cofactors, 15 min): 34.07%; Remaining Percentage ([6]; +Cofactors, 30 min): 11.66%; Remaining Percentage ([6]; +Cofactors, 45 min): 6.01%; Remaining Percentage ([6]; +Cofactors, 60 min): 2.50%; Remaining Percentage ([6]; -Cofactors, 60 min): 113.38%; recovery at 2 h, 1 μM (MDCKII-MDR1 permeability; read-out: Recovery% (AP-BL)): 68.6%; recovery at 2 h, 1 μM (MDCKII-MDR1 permeability; read-out: Recovery% (BL-AP)): 90%; recovery at 6 h, 5 μM ([7]; Sprague-Dawley (SD), rat brain homogenate): 102%; fraction unbound at 6 h, 5 μM ([7]; Sprague-Dawley, brain homogenate, read-out: fu,brain% / %Unboundbrain): 0.0447; remaining at 6 h, 5 μM ([7]; Sprague-Dawley, rat brain homogenate): 94.7%; fraction unbound at 6 h, 5 μM ([7]; Sprague-Dawley, rat brain homogenate, read-out: %Boundbrain (converted)): 0.0447; fraction unbound at 6 h, 5 µM ([7]; brain homogenate, read-out: fu,brain% / %Unboundbrain): 0.045; solubility at 2 h (Solubility assay; pH 1.2): > 300 µM; solubility at 2 h (Solubility assay; pH 6.8): 262 µM (≈ 121 µg/mL); solubility kinetic at 2 h (Solubility assay; pH 7.4, aqueous buffer, read-out: Aq. Sol.): 199 µM (≈ 91.9 µg/mL)
